From US7868046B2, “(2R)-2-[(4-sulfonyl) aminophenyl] propanamides and pharmaceutical compositions containing them” (Dompe' Pha.r.ma S.p.A., priority 2006, dated 2011)

Key:
[1] = tested on: human PMNs; assay: CXCL8 induced human PMN chemotaxis inhibition; assay type: cell-based; conditions: hPMN chemotaxis, compound at 10^−7 M; for inhibition at 0.1 µM: Homo sapiens
Procedure: (§1) The compounds of the invention of formula (I) were evaluated in vitro for their ability to inhibit chemotaxis of polymorphonucleate leukocytes (hereinafter referred to as PMNs) and monocytes induced by the fractions of IL-8 and GRO-α. For this purpose, in order to isolate the PMNs from heparinized human blood, taken from healthy adult volunteers, mononucleates were removed by means of sedimentation on dextran (according to the procedure disclosed by W. J. Ming et al., J. Immunol., 138, 1469, 1987) and red blood cells by a hypotonic solution. The cell vitality was calculated by exclusion with Trypan blue, whilst the ratio of the circulating polymorphonucleates was estimated on the cytocentrifugate after staining with Diff Quick.
In the CXCL8 induced chemotaxis assay human recombinant CXCL8 (Pepro Tech) was used as stimulating agents in the chemotaxis experiments: the lyophilized protein was dissolved in a volume of HBSS containing 0.2% bovin serum albumin (BSA) so thus to obtain a stock solution having a concentration of 10^−5 M to be diluted in HBSS to a concentration of 10^−8 M, for the chemotaxis assays.
(§2) In the chemotaxis experiments, the PMNs were incubated with the compounds of the invention of formula (I) for 15′ at 37° C. in an atmosphere containing 5% CO2.
(§3) During the chemotaxis assay [W. Falket et al., J. Immunol. Methods, 33, 239, 1980] PVP-free filters with a porosity of 5 μm and microchambers suitable for replication were used.
(§4) The compounds of the invention in formula (I) were evaluated at a concentration ranging between 10^−6 and 10^−10 M; for this purpose they were added, at the same concentration, both to the lower pores and the upper pores of the microchamber. Evaluation of the ability of the compounds of the invention of formula (I) to inhibit the chemotaxis of human monocytes was carried out according to a disclosed method [Van Damme J. et al., Eur. J. Immunol., 19, 2367, 1989].

[2] = tested on: human PMNs; assay: CXCL1 (GRO-α) induced human PMN chemotaxis inhibition; assay type: cell-based; conditions: hPMN chemotaxis, compound at 10^−8 M; for inhibition at 0.01 µM: Homo sapiens
Procedure: as §1
GRO-α induced chemotaxis inhibition was evaluated in an analogous assay.
as §2, §3, §4

## C[C@@H](C(N)=O)c1ccc(NS(C)(=O)=O)cc1 [Compound 4, (2R)-2-{4-[(methylsulfonyl)amino]phenyl}propanamide]
[1]
  inhibition at 0.1 µM: 10 ± 7%
[2]
  inhibition at 0.01 µM: 75 ± 7%

## C[C@@H](C(N)=O)c1ccc(NS(=O)(=O)C2CCCC2)cc1 [Compound 12, (2R)-2-{4-[(cyclopentylsulfonyl)amino]phenyl}propanamide]
[1]
  inhibition at 0.1 µM: 21 ± 10%
[2]
  inhibition at 0.01 µM: 67 ± 7%

## C[C@@H](C(N)=O)c1ccc(NS(=O)(=O)c2cccs2)cc1 [Compound 11, (2R)-2-{4-[(thien-2ylsulfonyl)amino]phenyl}propanamide]
[1]
  inhibition at 0.1 µM: 17 ± 4%
other
  melting point: 58 to 60 °C
[2]
  inhibition at 0.01 µM: 50 ± 2%

## CC(C)S(=O)(=O)Nc1ccc([C@@H](C)C(=O)Nc2nc(C(F)(F)F)cs2)cc1 [Compound 16, (2R)-2-{4-[(isopropylsulfonyl]amino}phenyl)-N-[4-(trifluoromethyl)-1,3-thiazol-2-yl]propanamide]
[1]
  inhibition at 0.1 µM: 11 ± 7%
[2]
  inhibition at 0.01 µM: 49 ± 10%

## CNC(=O)[C@H](C)c1ccc(NS(=O)(=O)C(C)C)cc1 [Compound 14, (2R)-2-{4-[(isopropylsulfonyl]amino}phenyl)-N-methylpropanamide]
[1]
  inhibition at 0.1 µM: 8 ± 9%
[2]
  inhibition at 0.01 µM: 64 ± 8%

## Cc1ccc(S(=O)(=O)Nc2ccc([C@@H](C)C(N)=O)cc2)cc1 [Compound 6, (2R)-2-{4-{[(4-methylphenyl)sulfonyl]amino}phenyl)propanamide]
[1]
  inhibition at 0.1 µM: 12 ± 10%
other
  melting point: 138 to 140 °C
[2]
  inhibition at 0.01 µM: 65 ± 4%

## C[C@@H](C(N)=O)c1ccc(NS(=O)(=O)c2ccc(C(F)(F)F)cc2)cc1 [Compound 10, (2R)-2-(4-{[(4-(trifluoromethyl)phenyl]sulfonyl}amino)phenyl]propanamide]
[1]
  inhibition at 0.1 µM: 15 ± 7%
other
  melting point: 178 to 180 °C
[2]
  inhibition at 0.01 µM: 69 ± 5%

## C[C@@H](C(N)=O)c1ccc(NS(=O)(=O)c2ccc(Cl)cc2)cc1 [Compound 9, (2R)-2-(4-{[(4-chlorophenyl)sulfonyl]amino}phenyl)propanamide]
[1]
  inhibition at 0.1 µM: 20 ± 4%
other
  melting point: 150 to 153 °C
[2]
  inhibition at 0.01 µM: 53 ± 12%

## C[C@@H](C(N)=O)c1ccc(NS(=O)(=O)c2ccccc2Cl)cc1 [Compound 2, (2R)-2-{4-{[(2-chlorophenyl)sulfonyl]amino}phenyl)propanamide]
[1]
  inhibition at 0.1 µM: 19 ± 5%
[2]
  inhibition at 0.01 µM: 41 ± 7%

## C[C@@H](C(N)=O)c1ccc(NS(=O)(=O)c2c(Cl)cccc2Cl)cc1 [Compound 3, (2R)-2-{4-{[(2,6-dichlorophenyl)sulfonyl]amino}phenyl)propanamide]
[1]
  inhibition at 0.1 µM: 14 ± 5%
[2]
  inhibition at 0.01 µM: 39 ± 10%

## C[C@@H](C(N)=O)c1ccc(NS(=O)(=O)c2ccccc2)cc1 [Compound 5, (2R)-2-{4-[(phenylsulfonyl)amino]phenyl}propanamide]
[1]
  inhibition at 0.1 µM: 15 ± 10%
other
  melting point: 152 to 153 °C
[2]
  inhibition at 0.01 µM: 44 ± 9%

## C[C@@H](C(N)=O)c1ccc(NS(=O)(=O)Cc2ccccc2)cc1 [Compound 8, (2R)-2-(4-[(benzylsulfonyl]amino}phenyl)propanamide]
[1]
  inhibition at 0.1 µM: 14 ± 9%
other
  melting point: 68 to 70 °C
[2]
  inhibition at 0.01 µM: 58 ± 6%

## COc1ccc(S(=O)(=O)Nc2ccc([C@@H](C)C(N)=O)cc2)cc1 [Compound 7, (2R)-2-{4-{[(4-methoxylphenyl)sulfonyl]amino}phenyl)propanamide]
[1]
  inhibition at 0.1 µM: 9 ± 7%
other
  melting point: 118 to 120 °C
[2]
  inhibition at 0.01 µM: 71 ± 11%

## C[C@@H](C(=O)NC1CC1)c1ccc(NS(=O)(=O)c2ccccc2Cl)cc1 [Compound 19, (2R)-2-{4-{[(2-chlorophenyl)sulfonyl]amino}phenyl)-N-cyclopropylpropanamide]
[1]
  inhibition at 0.1 µM: 19 ± 4%
[2]
  inhibition at 0.01 µM: 60 ± 8%

## CC(C)S(=O)(=O)Nc1ccc([C@@H](C)C(=O)N[C@@H](C)C(N)=O)cc1 [Compound 15, (2R)—N-[(1S)-2-amino-1-methyl-2-oxoethyl]-2-{4-[(isopropylsulfonyl]amino}phenyl) propanamide]
[1]
  CXCL8 (% inhibition at 10^−7 M): 10 ± 8%
[2]
  CXCL1 (% inhibition at 10^−8 M): 58 ± 2%

## CC(C)S(=O)(=O)Nc1ccc([C@@H](C)C(N)=O)cc1 [Compound 1, (2R)-2-{4-[(Isopropylsulfonyl]amino}phenyl)propanamide]
[1]
  inhibition at 0.1 µM: 7 ± 18%
other
  melting point: 125 to 127 °C
[2]
  inhibition at 0.01 µM: 67 ± 7%

## C[C@@H](C(N)=O)c1ccc(NS(=O)(=O)C(F)(F)F)cc1 [Compound 13, (2R)-2-(4-{[(trifluoromethyl)sulfonyl]amino}phenyl)propanamide]
[1]
  inhibition at 0.1 µM: 24 ± 7%
[2]
  inhibition at 0.01 µM: 75 ± 11%

## C[C@@H](C(=O)NCCOCCO)c1ccc(NS(=O)(=O)c2ccccc2Cl)cc1 [Compound 18, (2R)-2-{4-{[(2-chlorophenyl)sulfonyl]amino}phenyl)-N-[2-(2-hydroxyethoxy)ethyl]propanamide]
[1]
  inhibition at 0.1 µM: 6 ± 7%
[2]
  inhibition at 0.01 µM: 59 ± 5%

## C[C@@H](C(=O)Nc1nc(C(F)(F)F)cs1)c1ccc(NS(=O)(=O)c2ccccc2Cl)cc1 [Compound 17, (2R)-2-{4-{[(2-chlorophenyl)sulfonyl]amino}phenyl)-N-[4-(trifluoromethyl)-1,3-thiazol-2-yl]propanamide]
[1]
  inhibition at 0.1 µM: 14 ± 11%
[2]
  inhibition at 0.01 µM: 40 ± 12%
